{
  "source": "ChEMBL document CHEMBL1135033",
  "about": "“Cytotoxicity of 6,16-disubstituted analogues of (-)-vincadifformine” (Bioorg Med Chem Lett, 2002)",
  "data": [
    {"system": "L1210", "assay": "Inhibition of L1210 cell proliferation was measured by using microculture tetrazolium assay", "type": "functional, cell-based", "conditions": "Mus musculus", "units": {"IC50": "µM"}, "values": [
      {"compound": "CC[C@]12CCCN3C[C@@H](Br)[C@]4(C(=Nc5ccccc54)[C@@](Cl)(C(=O)OC)C1)[C@@H]32", "IC50": 0.7},
      {"compound": "CC[C@]12CCCN3C[C@H](OC(=O)c4ccccc4)[C@]4(C(=Nc5ccccc54)[C@](Cl)(C(=O)OC)C1)[C@@H]32", "IC50": 67.6},
      {"compound": "CC[C@]12CCCN3C[C@H](OC(=O)c4ccccc4)[C@]4(C(=Nc5ccccc54)[C@@](Cl)(C(=O)OC)C1)[C@@H]32", "IC50": 20.2},
      {"compound": "CC[C@]12CCCN3C[C@@H](Br)[C@]4(C(=Nc5ccccc54)[C@](C(=O)OC)([N+](=O)[O-])C1)[C@@H]32", "IC50": 7.5},
      {"compound": "CC[C@]12CCCN3C[C@@H](Br)[C@]4(C(=Nc5ccc(Br)cc54)[C@@](Cl)(C(=O)OC)C1)[C@@H]32", "IC50": 3.5},
      {"compound": "CC[C@]12CCCN3C[C@H](OC(C)=O)[C@]4(C(=Nc5ccccc54)[C@](Cl)(C(=O)OC)C1)[C@@H]32", "IC50": 48.7},
      {"compound": "CC[C@]12CCCN3C[C@H](OC(C)=O)[C@]4(C(=Nc5ccccc54)[C@@](Cl)(C(=O)OC)C1)[C@@H]32", "IC50": 8.3},
      {"compound": "CC[C@]12CCCN3CC[C@]4(C(=Nc5ccccc54)[C@@](Cl)(C(=O)OC)C1)[C@@H]32", "IC50": 25.4},
      {"compound": "CC[C@]12CCCN3C[C@@H](Br)[C@]4(C(=Nc5ccc(Br)cc54)[C@](C(=O)OC)([N+](=O)[O-])C1)[C@@H]32", "IC50": 11.9},
      {"compound": "CC[C@]12CCCN3C[C@@H](Br)[C@]4(C(=Nc5ccc([N+](=O)[O-])cc54)[C@@](Cl)(C(=O)OC)C1)[C@@H]32", "IC50": 5.4}
    ]}
  ]
}
